According to ChEMBL document CHEMBL3991601, “The target landscape of clinical kinase drugs” (Science, 2017):
The source made the active and inactive calls.

How the values were obtained:
[1] = molecular target: T1, Eukaryotic translation initiation factor 5B (Homo sapiens, UniProt O60841)
T1 sequence (O60841 whole entry): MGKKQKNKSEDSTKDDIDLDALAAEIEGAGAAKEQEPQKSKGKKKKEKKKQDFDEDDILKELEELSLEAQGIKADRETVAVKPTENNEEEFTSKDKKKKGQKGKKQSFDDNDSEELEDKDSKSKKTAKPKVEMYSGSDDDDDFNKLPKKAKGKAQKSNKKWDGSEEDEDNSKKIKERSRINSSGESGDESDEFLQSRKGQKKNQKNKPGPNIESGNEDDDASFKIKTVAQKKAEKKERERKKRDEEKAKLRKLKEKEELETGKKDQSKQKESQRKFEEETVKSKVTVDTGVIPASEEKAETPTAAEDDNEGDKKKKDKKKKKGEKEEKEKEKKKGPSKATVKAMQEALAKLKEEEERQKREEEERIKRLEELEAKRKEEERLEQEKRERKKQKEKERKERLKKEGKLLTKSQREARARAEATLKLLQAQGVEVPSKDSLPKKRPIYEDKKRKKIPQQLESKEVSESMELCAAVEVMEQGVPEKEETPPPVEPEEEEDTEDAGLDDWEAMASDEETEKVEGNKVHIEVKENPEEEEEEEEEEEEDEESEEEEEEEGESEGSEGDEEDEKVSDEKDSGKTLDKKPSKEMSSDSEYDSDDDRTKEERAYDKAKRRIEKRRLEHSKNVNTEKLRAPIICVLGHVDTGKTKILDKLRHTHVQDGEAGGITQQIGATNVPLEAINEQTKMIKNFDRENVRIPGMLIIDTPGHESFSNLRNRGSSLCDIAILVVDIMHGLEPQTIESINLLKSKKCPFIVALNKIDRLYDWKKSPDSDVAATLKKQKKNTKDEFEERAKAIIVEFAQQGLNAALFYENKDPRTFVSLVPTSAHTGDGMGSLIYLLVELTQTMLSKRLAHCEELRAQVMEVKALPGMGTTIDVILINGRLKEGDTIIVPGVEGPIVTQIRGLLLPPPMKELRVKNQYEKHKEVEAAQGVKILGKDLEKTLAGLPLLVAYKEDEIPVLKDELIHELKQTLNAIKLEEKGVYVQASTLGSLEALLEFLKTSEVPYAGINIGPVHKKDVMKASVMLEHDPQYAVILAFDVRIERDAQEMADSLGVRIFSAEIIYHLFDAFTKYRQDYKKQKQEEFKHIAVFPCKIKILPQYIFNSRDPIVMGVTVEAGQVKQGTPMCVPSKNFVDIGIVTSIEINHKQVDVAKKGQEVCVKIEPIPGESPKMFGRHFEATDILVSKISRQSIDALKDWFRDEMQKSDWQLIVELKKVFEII

[2] = molecular target: T2, MAP/microtubule affinity-regulating kinase 4 (Homo sapiens, UniProt Q96L34)
T2 sequence (Q96L34 whole entry): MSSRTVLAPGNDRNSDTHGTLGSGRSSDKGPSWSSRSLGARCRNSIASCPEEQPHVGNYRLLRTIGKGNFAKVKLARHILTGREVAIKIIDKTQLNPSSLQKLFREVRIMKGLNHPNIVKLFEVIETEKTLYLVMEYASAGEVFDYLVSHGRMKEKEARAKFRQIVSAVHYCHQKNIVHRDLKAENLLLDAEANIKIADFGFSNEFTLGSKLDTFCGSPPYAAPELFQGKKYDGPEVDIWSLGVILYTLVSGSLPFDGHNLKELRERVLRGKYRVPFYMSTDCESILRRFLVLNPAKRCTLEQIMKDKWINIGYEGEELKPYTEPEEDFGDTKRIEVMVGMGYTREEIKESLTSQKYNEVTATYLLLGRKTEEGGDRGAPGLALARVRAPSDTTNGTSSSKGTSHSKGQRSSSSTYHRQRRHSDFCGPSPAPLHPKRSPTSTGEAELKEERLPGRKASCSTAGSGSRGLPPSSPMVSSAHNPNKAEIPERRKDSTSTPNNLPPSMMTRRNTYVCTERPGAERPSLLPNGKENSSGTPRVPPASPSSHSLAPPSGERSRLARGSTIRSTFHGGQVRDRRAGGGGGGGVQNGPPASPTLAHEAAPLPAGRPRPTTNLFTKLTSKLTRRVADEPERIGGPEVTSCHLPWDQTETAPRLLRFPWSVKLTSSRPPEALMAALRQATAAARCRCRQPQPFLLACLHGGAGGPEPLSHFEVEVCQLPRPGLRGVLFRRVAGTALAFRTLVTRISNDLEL

[3] = molecular target: Serine/threonine-protein kinase PAK 6 (Homo sapiens, UniProt Q9NQU5)
[4] = molecular target: T3, Protein kinase C zeta type (Homo sapiens, UniProt Q05513)
T3 sequence (Q05513 whole entry): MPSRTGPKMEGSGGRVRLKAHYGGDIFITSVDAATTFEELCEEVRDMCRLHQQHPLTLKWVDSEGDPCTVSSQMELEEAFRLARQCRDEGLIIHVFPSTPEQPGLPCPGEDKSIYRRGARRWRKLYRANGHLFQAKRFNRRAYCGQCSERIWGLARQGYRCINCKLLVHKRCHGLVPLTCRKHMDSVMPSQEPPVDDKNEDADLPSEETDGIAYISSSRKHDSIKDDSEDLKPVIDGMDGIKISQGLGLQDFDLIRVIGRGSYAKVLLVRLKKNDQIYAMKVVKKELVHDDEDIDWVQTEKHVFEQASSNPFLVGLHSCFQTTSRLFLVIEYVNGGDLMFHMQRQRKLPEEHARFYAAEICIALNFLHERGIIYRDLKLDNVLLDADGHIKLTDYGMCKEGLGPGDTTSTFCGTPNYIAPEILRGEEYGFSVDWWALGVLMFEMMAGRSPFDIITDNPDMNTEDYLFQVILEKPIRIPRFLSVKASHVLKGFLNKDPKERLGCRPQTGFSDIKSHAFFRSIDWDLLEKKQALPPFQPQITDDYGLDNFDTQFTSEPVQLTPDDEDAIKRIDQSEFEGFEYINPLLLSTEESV
Further: in the data inactive means no Kd found up to 30 µM.

Chain of Serine/threonine-protein kinase PAK 6 (Q9NQU5 whole entry): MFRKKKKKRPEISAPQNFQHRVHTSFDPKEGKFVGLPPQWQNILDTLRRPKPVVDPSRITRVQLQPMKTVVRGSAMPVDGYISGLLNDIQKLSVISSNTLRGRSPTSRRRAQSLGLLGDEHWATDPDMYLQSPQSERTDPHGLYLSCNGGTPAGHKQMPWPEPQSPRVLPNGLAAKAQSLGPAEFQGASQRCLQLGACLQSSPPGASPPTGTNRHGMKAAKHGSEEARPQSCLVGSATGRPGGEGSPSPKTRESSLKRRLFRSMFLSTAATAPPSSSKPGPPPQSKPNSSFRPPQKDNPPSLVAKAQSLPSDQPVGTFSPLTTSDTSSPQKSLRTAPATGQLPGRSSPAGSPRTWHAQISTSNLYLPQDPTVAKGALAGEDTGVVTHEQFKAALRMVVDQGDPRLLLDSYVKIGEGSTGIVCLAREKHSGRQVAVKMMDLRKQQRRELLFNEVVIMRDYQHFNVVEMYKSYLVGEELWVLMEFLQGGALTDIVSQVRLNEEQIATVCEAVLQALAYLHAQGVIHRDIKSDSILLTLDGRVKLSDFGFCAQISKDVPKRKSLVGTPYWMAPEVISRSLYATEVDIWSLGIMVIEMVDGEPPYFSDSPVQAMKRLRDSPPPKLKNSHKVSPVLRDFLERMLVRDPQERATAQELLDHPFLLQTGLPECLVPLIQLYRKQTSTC

Compound	Kd [1]	Kd [2]	Kd [3]	Kd [4]
O=C(NC[C@H](O)CO)c1ccncc1Nc1ccc(I)cc1F [PIMASERTIB]	> 30 µM (inactive)	> 30 µM (inactive)	> 30 µM (inactive)	10.4 µM
COc1cc2c(Oc3ccc4[nH]c(C)cc4c3F)ncnc2cc1OCCCN1CCCC1 [CEDIRANIB]	> 30 µM (inactive)	–	–	> 30 µM (inactive)
O=S(=O)(c1cccc2c(O)nccc12)N1CCCNCC1 [HYDROXYFASUDIL]	> 30 µM (inactive)	–	–	> 30 µM (inactive)
CCN1CCN(Cc2ccc(Nc3ncc(F)c(-c4cc(F)c5nc(C)n(C(C)C)c5c4)n3)nc2)CC1 [ABEMACICLIB]	> 30 µM (inactive)	> 30 µM (inactive)	–	> 30 µM (inactive)
COc1cc(F)c(F)c(Nc2ccc(I)cc2F)c1NS(=O)(=O)C1(C[C@H](O)CO)CC1 [REFAMETINIB]	> 30 µM (inactive)	> 30 µM (inactive)	> 30 µM (inactive)	> 30 µM (inactive)
CC1(COc2ccc3c(c2)ncn3-c2ccc3cccc(N4CCC(N)CC4)c3n2)COC1 [CRENOLANIB]	> 30 µM (inactive)	0.025 µM (active)	> 30 µM (inactive)	> 30 µM (inactive)
CCc1cc2c(cc1N1CCC(N3CCOCC3)CC1)C(C)(C)c1[nH]c3cc(C#N)ccc3c1C2=O [ALECTINIB]	> 30 µM (inactive)	> 30 µM (inactive)	> 30 µM (inactive)	> 30 µM (inactive)
C=CCn1c(=O)c2cnc(Nc3ccc(N4CCN(C)CC4)cc3)nc2n1-c1cccc(C(C)(C)O)n1 [ADAVOSERTIB]	> 30 µM (inactive)	> 30 µM (inactive)	> 30 µM (inactive)	> 30 µM (inactive)
CC1(C)CNc2cc(NC(=O)c3cccnc3NCc3ccncc3)ccc21 [MOTESANIB]	> 30 µM (inactive)	–	–	> 30 µM (inactive)
COCCN1CCN(Cc2ccc(-c3n[nH]c4c3C(=O)c3c(NC(=O)NN5CCOCC5)cccc3-4)cc2)CC1 [RGB-286638]	> 30 µM (inactive)	> 30 µM (inactive)	> 30 µM (inactive)	> 30 µM (inactive)
Cn1cnc2c(F)c(Nc3ccc(Br)cc3Cl)c(C(=O)NOCCO)cc21 [SELUMETINIB]	> 30 µM (inactive)	–	–	> 30 µM (inactive)
C#Cc1cccc(Nc2ncnc3cc4c(cc23)OCCOCCOCCO4)c1 [ICOTINIB]	> 30 µM (inactive)	> 30 µM (inactive)	> 30 µM (inactive)	> 30 µM (inactive)
COc1cc2nccc(Oc3ccc(NC(=O)C4(C(=O)Nc5ccc(F)cc5)CC4)cc3)c2cc1OC [CABOZANTINIB]	> 30 µM (inactive)	> 30 µM (inactive)	> 30 µM (inactive)	> 30 µM (inactive)
O[C@H]1CC[C@H](Nc2ncc3nc(Nc4c(F)cc(F)cc4F)n([C@H]4CCOC4)c3n2)CC1 [TANZISERTIB]	> 30 µM (inactive)	> 30 µM (inactive)	> 30 µM (inactive)	> 30 µM (inactive)
Cn1cc(-c2[nH]c3cc(NC(=O)[C@H](N)C4CCCCC4)cc4c3c2C=NNC4=O)cn1	–	0.036 µM	0.019 µM	> 30 µM (inactive)
Cn1c(=O)n(-c2ccc(C(C)(C)C#N)cc2)c2c3cc(-c4cnc5ccccc5c4)ccc3ncc21 [DACTOLISIB]	> 30 µM (inactive)	> 30 µM (inactive)	> 30 µM (inactive)	> 30 µM (inactive)

More lines, now with the values ahead:

Kd [1]	Kd [2]	Kd [3]	Kd [4]	Compound
> 30 µM (inactive)	> 30 µM (inactive)	> 30 µM (inactive)	> 30 µM (inactive)	O=C(Nc1ccc(OC(F)(F)F)cc1)c1sccc1NCc1ccnc2ccccc12 [OSI-930]
> 30 µM (inactive)	> 30 µM (inactive)	> 30 µM (inactive)	> 30 µM (inactive)	Cc1cc(Nc2nc(N[C@@H](C)c3ncc(F)cn3)ncc2Cl)n[nH]1 [AZD-1480]
> 30 µM (inactive)	–	–	> 30 µM (inactive)	C[C@@]1(C(=O)Nc2ccc(F)nc2)CCCN1c1nc(Nc2cc(C3CC3)n[nH]2)c2cccn2n1 [BMS-754807]
> 30 µM (inactive)	> 30 µM (inactive)	–	> 30 µM (inactive)	COc1cccc2cc(-c3nc([C@H]4CC[C@H](C(=O)O)CC4)n4ncnc(N)c34)[nH]c12 [OSI-027]
> 30 µM (inactive)	> 30 µM (inactive)	> 30 µM (inactive)	> 30 µM (inactive)	NC(=O)c1ccc(N(C(N)=O)c2c(F)cccc2F)nc1-c1ccc(F)cc1F [VX-702]
